Test results from patent publication US20040013721A1, “Controlled and sustained release properties of polyelectrolyte multilayer capsules” (priority 2000, published 2004).

Experiment: Permeability for probe polymers and dyes, and its temperature dependence, by confocal imaging
Type: physicochemical
Details: independent of their charge
Procedure: Monodisperse spheres (d=5.94 μm) of a weakly polymerized melamine-formaldehyde resin were used as templates (Microparticle GmbH). The particles were covered by alternating adsorption of sodium polystyrene sulfonate PSS (MW 70 000 g mol^−1, Aldrich) and polyallylamine hydrochloride PAH (MW 70 000 g mol^−1, Aldrich) from an aqueous solution of 10^−2 M PSS in 0.1 M sodium chloride. After 8 layers the core was dissolved in 0.1 M hydrochloric acid. The decomposition products were removed by washing with acid and an aqueous solution of 10^−2 M NaCl. Hollow polyelectrolyte capsules remained. […]
For the study of the permeability, fluorescence labeled polymers were used. […] The MW of the polymer was determined being 120 000 g/mol by gel permeation chromatography. […]
Laser scanning microscopy was performed for the determination of the loading grade of the capsules. […] The amounts of polymer/monomer in the interior were determined by integration of the fluorescence intensity inside the capsules. The exact concentration was taken from calibration curves, determined for each fluorescent probe separately. […]
The permeability of the capsules was studied for positively (PAH) and negatively charged (PSS), zwitterionic (albumine) and noncharged (dextran) fluorescent polymers (dextran). […] Then, the fluorescence intensity in the center of the capsules was measured by confocal imaging. […]

Molecule	penetration of the capsule wall by small dye molecules
CN(C)c1ccc2cc3ccc(N(C)C)cc3nc2c1 [acridine orange]	can penetrate the capsule wall
rhodamine	can penetrate the capsule wall
